Assay results: patent publication US20230009626A1 (ICHNOS SCIENCES S.A., priority 2018, published 2023)

Target: HPK1 (MAP4K1) (Homo sapiens, UniProt Q92918)
Test: FRET Assay for HPK1 (MAP4K1): one step binding assay, displacement of labeled tracer
Details: for inhibition at 1 µM: 1 μM compound; for inhibition at 1 µM / inhibition at 10 µM: FRET ratio 665/620, percent of control; for inhibition at 10 µM: 10 μM compound; for IC50: dose response curve, nonlinear regression
From the text: FRET Assay for HPK1 (MAP4K1):
This is a one step binding assay based on the binding and displacement of the labeled tracer, where compound addition is followed by addition of the anti-GST tagged europium (Eu) as the donor and Alexa Fluor-labeled tracer as the acceptor. Simultaneous binding of both the tracer and GST-antibody to the kinase domain of HPK1 results in a high degree of FRET (fluorescence resonance energy transfer) from the anti-GST tagged europium (Eu) fluorophore to the Alexa Fluor® 647 fluorophore on the kinase tracer and this signal is reduced in presence of the inhibitor that can be measured.
Test compounds or reference compounds such as Sunitinib (Sigma) were dissolved in dimethylsulfoxide (DMSO) to prepare 10.0 mM stock solutions and diluted to the desired concentration. The final concentration of DMSO in the reaction was 3% (v/v). The assay mixture was prepared by mixing 4 nM of the Eu-Anti-GST Antibody and 10 nM MAP4K-1 enzyme in the Kinase buffer containing 50mM HEPES (pH 7.5), 10 mM MgCl2, 1 mM EGTA, 0.01% Brij-35 with or without the desired concentration of the compound. The reaction was incubated on ice for 15 mins. The pre-incubation step was followed by addition of the 20 nM Kinase Tracer 222 into the reaction mixture. After shaking for 5 min the reaction was further incubated for 1 hour at room temperature and this was kept at 4° C. and read on ARTEMIS reader as per the kit instructions (Thermo). […] The activity was calculated as percent of control reaction. IC50 values were calculated from dose response curve by nonlinear regression analysis using GraphPad Prism software.
Percentage inhibition at concentrations of 1.0 μM and 10.0 μM are given in the table along with IC50 (nM) details for selected examples.

Chain of HPK1 (MAP4K1) (Q92918 whole entry): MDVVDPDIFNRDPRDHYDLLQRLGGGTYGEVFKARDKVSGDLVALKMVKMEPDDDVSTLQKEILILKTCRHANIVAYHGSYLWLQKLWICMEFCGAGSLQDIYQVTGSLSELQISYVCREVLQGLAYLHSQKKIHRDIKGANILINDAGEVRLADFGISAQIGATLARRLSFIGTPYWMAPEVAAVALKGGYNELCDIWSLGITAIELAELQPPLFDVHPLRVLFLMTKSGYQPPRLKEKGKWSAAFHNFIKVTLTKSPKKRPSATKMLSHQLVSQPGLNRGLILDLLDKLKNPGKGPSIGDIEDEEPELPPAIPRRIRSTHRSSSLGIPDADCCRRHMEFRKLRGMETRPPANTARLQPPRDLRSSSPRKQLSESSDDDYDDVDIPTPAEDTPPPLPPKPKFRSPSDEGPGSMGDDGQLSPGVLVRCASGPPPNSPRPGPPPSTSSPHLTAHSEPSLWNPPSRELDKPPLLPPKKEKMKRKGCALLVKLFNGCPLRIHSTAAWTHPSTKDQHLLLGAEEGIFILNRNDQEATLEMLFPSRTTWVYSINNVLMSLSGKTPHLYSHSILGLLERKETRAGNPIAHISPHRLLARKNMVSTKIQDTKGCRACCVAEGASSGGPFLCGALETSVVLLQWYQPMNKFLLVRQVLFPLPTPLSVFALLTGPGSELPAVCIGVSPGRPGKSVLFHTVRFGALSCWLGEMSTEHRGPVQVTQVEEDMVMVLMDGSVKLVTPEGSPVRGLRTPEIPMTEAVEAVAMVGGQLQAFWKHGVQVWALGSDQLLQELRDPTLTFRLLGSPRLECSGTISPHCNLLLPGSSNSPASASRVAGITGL

Structure (SMILES)	inhibition at 1 µM	inhibition at 10 µM	IC50
CCn1cc(N/C(C)=C2\C(=O)Nc3cnc(-c4c(F)cccc4OC)cc32)cn1 [Example 29, (Z)-3-(1-((1-Ethyl-1H-pyrazol-4-yl)amino)ethylidene)-5-(2-fluoro-6-methoxyphenyl)-1H-pyrrolo[2,3-c]pyridin-2(3H)-one]	87.4%	85.1%	< 50 nM
COc1cccc(F)c1-c1cc2c(cn1)NC(=O)/C2=C(/C)Nc1cnn(C2CC2)c1 [Example 30, (Z)-3-(1-((1-Cyclopropyl-1H-pyrazol-4-yl)amino)ethylidene)-5-(2-fluoro-6-methoxyphenyl)-1H-pyrrolo[2,3-c]pyridin-2(3H)-one]	89.9%	92.8%	< 50 nM
COc1cccc(F)c1-c1cc2c(cn1)NC(=O)/C2=C(/C)Nc1cnn(C(C)C#N)c1 (centres unmarked) [Example 31, (Z)-2-(4-((1-(5-(2-Fluoro-6-methoxyphenyl)-2-oxo-1H-pyrrolo[2,3-c]pyridin-3(2H)-ylidene)ethyl)amino)-1H-pyrazol-1-yl)propanenitrile]	86.9%	92.3%	< 50 nM
CC/C(Nc1cnn(C)c1)=C1/C(=O)Nc2cnc(-c3c(F)cccc3OC)cc21 [Example 32, (Z)-5-(2-Fluoro-6-methoxyphenyl)-3-(1-((1-methyl-1H-pyrazol-4-yl)amino)propylidene)-1H-pyrrolo[2,3-c]pyridin-2(3H)-one]	90.3%	100%	< 50 nM
COc1ccncc1-c1cc2c(cn1)NC(=O)/C2=C(/C)Nc1cnn(C)c1 [Example 33, (Z)-5-(4-methoxypyridin-3-yl)-3-(1-((1-methyl-1H-pyrazol-4-yl)amino)ethylidene)-1H-pyrrolo[2,3-c]pyridin-2(3H)-one]	91.6%	87.8%	< 50 nM
C/C(Nc1cnn(C)c1)=C1/C(=O)Nc2cnc(-c3c(F)cccc3OC(F)F)cc21 [Example 35, (Z)-5-(2-(Difluoromethoxy)-6-fluorophenyl)-3-(1-((1-methyl-1H-pyrazol-4-yl)amino)ethylidene)-1H-pyrrolo[2,3-c]pyridin-2(3H)-one]	88%	100%	< 50 nM
CCOc1cccc(F)c1-c1cc2c(cn1)NC(=O)/C2=C(/C)Nc1ccc(N2CCOCC2)nc1 [Example 37, (Z)-5-(2-Ethoxy-6-fluorophenyl)-3-(1-((6-morpholinopyridin-3-yl)amino)ethylidene)-1H-pyrrolo[2,3-c]pyridin-2(3H)-one]	84.4%	91.2%	50 to 100 nM
C/C(Nc1ccc(N2CCOCC2)nc1)=C1/C(=O)Nc2cnc(-c3cnccc3C)cc21 [Example 38, (Z)-5-(4-Methylpyridin-3-yl)-3-(1-((6-morpholinopyridin-3-yl)amino)ethylidene)-1H-pyrrolo[2,3-c]pyridin-2(3H)-one]	93.5%		< 50 nM
COc1cccc(F)c1-c1cc2c(cn1)NC(=O)/C2=C(\Nc1cnn(C)c1)C(C)C [Example 40, (Z)-5-(2-Fluoro-6-methoxyphenyl)-3-(2-methyl-1-((1-methyl-1H-pyrazol-4-yl)amino)propylidene)-1H-pyrrolo[2,3-c]pyridin-2(3H)-one]	81.3%	92%	100 to 500 nM
COc1cccc(F)c1-c1ccc2c(n1)/C(=C(\C)Nc1cnn(C)c1)C(=O)N2 [Example 43, (Z)-5-(2-Fluoro-6-methoxyphenyl)-3-(1-((1-methyl-1H-pyrazol-4-yl)amino)ethylidene)-1H-pyrrolo[3,2-b]pyridin-2(3H)-one]	86.2%	89.2%	< 50 nM
COc1cccc(F)c1-c1cc2c(cn1)NC(=O)/C2=C(/C)Nc1cnn(C2CCOCC2)c1 [Example 44, (Z)-5-(2-Fluoro-6-methoxyphenyl)-3-(1-((1-(tetrahydro-2H-pyran-4-yl)-1H-pyrazol-4-yl)amino)ethylidene)-1H-pyrrolo[2,3-c]pyridin-2(3H)-one]	91.4%	93.1%	< 50 nM
C/C(Nc1ccc(N2CCNCC2)nc1)=C1/C(=O)Nc2cnc(-c3cnccc3C)cc21 [Example 46, (Z)-5-(4-Methylpyridin-3-yl)-3-(1-((6-(piperazin-1-yl)pyridin-3-yl)amino)ethylidene)-1H-pyrrolo[2,3-c]pyridin-2(3H)-one]	85.3%	87.3%	< 50 nM
C/C(Nc1cnn(C2CC2)c1)=C1/C(=O)Nc2cnc(-c3cnccc3C)cc21 [Example 49, (Z)-3-(1-((1-Cyclopropyl-1H-pyrazol-4-yl)amino)ethylidene)-5-(4-methylpyridin-3-yl)-1H-pyrrolo[2,3-c]pyridin-2(3H)-one]	64.3%	74.2%	< 50 nM
CCn1cc(N/C(C)=C2\C(=O)Nc3cnc(-c4cnccc4C)cc32)cn1 [Example 50, (Z)-3-(1-((1-Ethyl-1H-pyrazol-4-yl)amino)ethylidene)-5-(4-methylpyridin-3-yl)-1H-pyrrolo[2,3-c]pyridin-2(3H)-one]	82.8%	87.9%	< 50 nM

Further lines, results first:

inhibition at 1 µM	inhibition at 10 µM	IC50	Structure (SMILES)
84.8%	89.4%	< 50 nM	COc1cccc(F)c1-c1cc2c(cn1)NC(=O)/C2=C(/C)Nc1ccn(C)n1 [Example 28, (Z)-5-(2-Fluoro-6-methoxyphenyl)-3-(1-((1-methyl-1H-pyrazol-3-yl)amino)ethylidene)-1H-pyrrolo[2,3-c]pyridin-2(3H)-one]
81.7%	80%	< 50 nM	CCOc1cccc(F)c1-c1cc2c(cn1)NC(=O)/C2=C(/C)Nc1ccc(N2CCNCC2)cc1 [Example 34, (Z)-5-(2-Ethoxy-6-fluorophenyl)-3-(1-((4-(piperazin-1-yl)phenyl)amino)ethylidene)-1H-pyrrolo[2,3-c]pyridin-2(3H)-one]
87.8%	85.1%	< 50 nM	CCOc1cccc(F)c1-c1cc2c(cn1)NC(=O)/C2=C(/C)Nc1ccc(N2CCNCC2)nc1 [Example 36, (Z)-5-(2-Ethoxy-6-fluorophenyl)-3-(1-((6-(piperazin-1-yl)pyridin-3-yl)amino)ethylidene)-1H-pyrrolo[2,3-c]pyridin-2(3H)-one]
72.2%	86.6%	< 50 nM	COCCn1cc(N/C(C)=C2\C(=O)Nc3cnc(-c4c(F)cccc4OC)cc32)cn1 [Example 39, (Z)-5-(2-Fluoro-6-methoxyphenyl)-3-(1-((1-(2-methoxyethyl)-1H-pyrazol-4-yl)amino)ethylidene)-1H-pyrrolo[2,3-c]pyridin-2(3H)-one]
69.9%	77%	50 to 100 nM	C/C(Nc1cnn(C)c1)=C1/C(=O)Nc2cnc(-c3cnn(C)c3C)cc21 [Example 41, (Z)-5-(1,5-Dimethyl-1H-pyrazol-4-yl)-3-(1-((1-methyl-1H-pyrazol-4-yl)amino)ethylidene)-1H-pyrrolo[2,3-c]pyridin-2(3H)-one]
72.4%	86%	100 to 500 nM	C/C(Nc1cnn(C)c1)=C1/C(=O)Nc2cnc(-c3cnc4c(c3C)NCCO4)cc21 [Example 45, (Z)-3-(1-((1-Methyl-1H-pyrazol-4-yl)amino)ethylidene)-5-(8-methyl-2,3-dihydro-1H-pyrido[2,3-b][1,4]oxazin-7-yl)-1H-pyrrolo[2,3-c]pyridin-2(3H)-one]
83.5%	82.5%	< 50 nM	CC/C(Nc1cnn(C)c1)=C1/C(=O)Nc2cnc(-c3cnccc3C)cc21 [Example 47, (Z)-3-(1-((1-Methyl-1H-pyrazol-4-yl)amino)propylidene)-5-(4-methylpyridin-3-yl)-1H-pyrrolo[2,3-c]pyridin-2(3H)-one]
77.2%	84.8%	50 to 100 nM	Cc1ccncc1-c1cc2c(cn1)NC(=O)/C2=C(\Nc1cnn(C)c1)C(C)C [Example 48, (Z)-3-(2-Methyl-1-((1-methyl-1H-pyrazol-4-yl)amino)propylidene)-5-(4-methylpyridin-3-yl)-1H-pyrrolo[2,3-c]pyridin-2(3H)-one]
81.2%	84.2%	< 50 nM	C/C(Nc1cnn(C)c1)=C1/C(=O)Nc2cnc(-c3cncc(N)c3C)cc21 [Example 51, (Z)-5-(5-Amino-4-methylpyridin-3-yl)-3-(1-((1-methyl-1H-pyrazol-4-yl)amino)ethylidene)-1H-pyrrolo[2,3-c]pyridin-2(3H)-one]
86.1%	84.9%	< 50 nM	C/C(Nc1cnn(C2COC2)c1)=C1/C(=O)Nc2cnc(-c3cnccc3C)cc21 [Example 52, (Z)-5-(4-Methylpyridin-3-yl)-3-(1-((1-(oxetan-3-yl)-1H-pyrazol-4-yl)amino)ethylidene)-1H-pyrrolo[2,3-c]pyridin-2(3H)-one]
